# In US20250154149A1, “PHARMACEUTICAL COMPOSITION AND METHOD FOR PREPARING ACTIVE INGREDIENT COMPOUND THEREOF” (Betta Pharmaceuticals Co., Ltd., priority 2022, published 2025):
# Legend:
# [1] = Pharmacokinetics in plasma of mice after oral administration; format: in vivo; conditions: female, BALB/c, mouse, oral (gavage, clear solution), single dose 5 mg/kg
# Protocol: Adult BALB/c female mice (6 weeks to 7 weeks) were received a single administration of the compound represented by Formula I containing 10% to 20% DMSO, 10% Solutol (KollipHor HS15) and 80% to 70% physiological saline as excipient. Mice (n=3) were administered orally (gavage, clear solution) at a dose of 5 mg/kg. Blood was collected after oral administration at the following points of time: 15 min, 30 min, 1 h, 2 h, 4 b, 7 h, and 24 h. About 0.1 mL of whole blood was collected from the retro-orbital venous plexus and placed in a test tube containing EDTA anticoagulant. Samples were centrifuged at 4° C. and 4000 rpm for 10 min. Plasma was transferred to a centrifugal tube and stored at −20° C. before analysis. The concentration of test compound in plasma samples was analyzed by liquid chromatography-tandem mass spectrometry (LC-MS/MS). Plasma concentration-time data from individual animals were analyzed using software Sciex Analyst. A non-compartmental model was introduced in the concentration analysis, and pharmacokinetic parameters of the test compound were calculated using software WinNonlin (version 4.1; pHarsight).
# [2] = test system: YAP/TAZ-TEAD transcription complex; assay: CTGF detection (ELISA method) in NCI-H2052 cells; format: cell-based, human; conditions: NCI-H2052 cells (NF2 mutation), 24 hours incubation, CTGF in culture supernatant by ELISA; read-out: EC50 value (CTGF concentration response curve)
# Protocol: The detection of CTGF expression level may assess the activity of the YAP/TAZ-TEAD transcription complex. CTGF expression level was quantitatively detected using a human SimpleStep ELISA® kit (Abcam, ab261851).
# NCI-H2052 cells (purchased from ATCC, NF2 mutation) were cultured in RPMI 1640 complete medium (containing 10% FBS, 1% penicillin-streptomycin solution and I mM sodium pyruvate). The day before compound treatment, cultured cells were washed with PBS, digested with trypsin, and then collected by centrifugation. The supernatant was removed, and the cells were resuspended in fresh complete medium. Cells were counted and inoculated in 96-well plates at a density of 6500 cells/well. […]
# The Human CTGF ELISA Kit uses an affinity labeled capture antibody and a reporter gene coupled detection antibody to immunocapture the sample analytes in the solution. […] 50 μL of standard or cell supernatant sample to be detected were added to the wells of the detection plate. […] Finally, the OD value at 450 nm of each well was read on a multifunctional microplate reader. The concentrations of the target CTGF protein in the samples were determined by standard curve.
# The inhibitory activity of the compound of the present application on the transcription regulatory function of TEAD-YAP/TAZ was assessed by the CTGF concentration response curve of the compound. […]
# [3] = test system: NCI-H226 cells; assay: Cell proliferation inhibitory activity detection (CTG detection); format: cell-based; conditions: Homo sapiens; NCI-H226 cells (NF2 expression-deficient), 144 h, CellTiter-Glo; read-out: IC50 value (inhibition of cell proliferation)
# Protocol: The inhibition of the compound on cell proliferation was detected using CellTiter-Glo® Luminescent Cell Viability Assay Kit (Promega Company). NCI-H226 cells (purchased from ATCC, NF2 expression-deficient) were cultured in RPMI 1640 complete medium (containing 10% FBS, 1% penicillin-streptomycin solution and 1 mM sodium pyruvate). • a) The day before compound treatment, cultured cells were washed with PBS, digested with trypsin, and then collected by centrifugation. The supernatant was removed and the cells were resuspended in fresh RPMI 1640 complete medium. […] Finally, the luminescence signal value (RLU) of each well was read on a multifunctional microplate reader PE En Vision®.
# Inhibition rate (IR) of the detected compound: IR (%)=(1−(RLU compound−RLU blank control)/(RLU solvent control−RLU blank control))*100%. The inhibition rates of the compounds at different concentrations were calculated in Excel, then software GraphPad Prism was used to generate inhibition curves, and the relevant parameters were calculated, including the minimum inhibition rate Bottom. the maximum inhibition rate Top and IC50. […]
# [4] = Pressure stability of the crystal form A; format: physicochemical; conditions: pressure conditions of 150 kg and 230 kg
# [5] = Physicochemical stability test of the crystal form A; conditions: influencing factors (40° C., 60° C., 92.5% RH, 75% RH, 4500Lx), accelerated test, long-term test
# Protocol: Referring to the requirements of “9001 Guidelines for Stability Test of APIs and Pharmaceutical Preparations” in the Chinese Pharmacopoeia, the stability test was conducted on the crystal form A of the compound represented by Formula I, and the specific test conditions are shown in Table 10.
# [6] = test system: NCI-H226 (NF2 expression-deficient) human lung squamous cell carcinoma xenograft; assay: In vivo efficacy in subcutaneous NCI-H226 xenograft model; conditions: QD, oral, day 45, NCI-H226 xenograft in BALB/c nude mice
# Protocol: In vivo pharmacodynamics and efficacy studies of the compound represented by Formula I were performed in a subcutaneous NCI-H226 (NF2 expression-deficient) human lung squamous cell carcinoma xenograft model in BALB/c nude mice.
# BALB/c nude female mice (6 weeks to 7 weeks) were inoculated subcutaneously with 1×10^7 NCI-H226 tumor cells on the right side of each. The inoculated cells were resuspended in a mixture solution of 0.1 mL of PBS and matrix gel Matrigel (PBS: Matrigel=1:1). Administration treatment was started in groups when the average tumor size reached about 100 mm^3 to 200 mm^3. From the date of grouping, the mice were orally administered the crystal form A of the compound represented by Formula I (solvent: 10% DMSO+10% Solutol (KollipHor HS15)+80% physiological saline) once a day for a total of 45 days (QD×45 days). Animals were regularly monitored for changes in body weight as an indicator of compound safety. Tumors were measured twice weekly using a caliper, and the volume was expressed in mm^3 using the formula “V=(L×W^2)/2”, where V is the tumor volume, L is the length of the tumor (the longest tumor dimension) and W is the width of the tumor (the longest tumor dimension perpendicular to L). Compound inhibitory activity was assessed by tumor growth inhibition TGI (%). […]
# [7] = Hygroscopicity test (DVS); format: physicochemical
AUC(0-t) [1],Cmax [1],EC50 [2],IC50 [3],Crystal form after pressing [4],"Change in crystal form, characteristics and content compared with day 0 [5]","Crystal form after the DVS test (XRPD) ([7]; after DVS test, XRPD detection)",Hygroscopicity (DVS) ([7]; dynamic vapor sorption analyzer),Compound,TGI (%) ([6]; 10 mg/kg),TGI (%) ([6]; 50 mg/kg)
17200 ng·h/mL,1970 ng/mL,2 nM,7 nM,–,–,–,–,"C=C(F)C(=O)N1CC(n2c(=O)n(-c3ccc(C(F)(F)F)cc3)c3nccnc32)C1 [compound represented by Formula I, 1-[1-(2-fluoroacryloyl)azetidin-3-yl]-3-(4-trifluoromethylphenyl)-1,3-dihydro-2H-imidazo[4,5-b]pyrazin-2-one]",–,–
–,–,–,–,the crystal form was not changed,no significant change,no change in the crystal form,no hygroscopicity,"C=C(F)C(=O)N1CC(n2c(=O)n(-c3ccc(C(F)(F)F)cc3)c3nccnc32)C1 [1-[1-(2-fluoroacryloyl)azetidin-3-yl]-3-(4-trifluoromethylphenyl)-1,3-dihydro-2H-imidazo[4,5-b]pyrazin-2-one]",109%,111%
